We go through three compounds from article PMC8076879 (Acta Pharmacologica Sinica, 2021).

Data set [1] can be described thus: Cytotoxicity in Huh-7 cells, CCK8 assay. It counts as cell-based. The settings on record: human. A general note: Tetrazolium dyes change colour on reduction, which living cells bring about.
A short description of data set [2]: Cytotoxicity in HEK293T cells, CCK8 assay. The format is cell-based. The settings on record: human.
The nature of the next data set: in vitro. The settings on record: African green monkey.
In a further data set the test system is SARS-CoV-2. The settings on record: read-out: anti-SARS-CoV-2 EC50 (reported); cited from earlier work.
The conditions of data set [3]: cited from earlier work.
For data set [4] the following is noted: cited from earlier work. The source holds these as a separate data set.

Some results are limits rather than exact numbers.

With `CC[C@H]1CN2CCc3cc(OC)c(OC)cc3[C@@H]2C[C@@H]1C[C@H]1NCCc2cc(O)c(OC)cc21` [cephaeline], the CC50 amounted to 3.04 ± 1.7 µM in data set [1], 2 ± 0.468 µM in data set [2] and 49 ± 46.3 µM in the data set “in vitro”.

Usually EC50 stands for the concentration needed to bring the measured effect to its halfway point. Consider `CC[C@H]1CN2CCc3cc(OC)c(OC)cc3[C@@H]2C[C@@H]1C[C@H]1NCCc2cc(OC)c(OC)cc21` [emetine], for which the EC50 in the data set on SARS-CoV-2 was 0.46 µM. In addition, the values for the CC50 (in data set [1]; in data set [2]; in the data set “in vitro”) were 0.0334 ± 0.000617 µM, 0.0378 ± 0.000562 µM and 2.17 ± 0.258 µM, respectively.

Take `O[C@H]1[C@H]2c3cc4c(cc3CN3CCC(=C[C@@H]1O)[C@H]23)OCO4` [lycorine]: in the data set on SARS-CoV-2, the EC50 is 0.31 µM. Besides, the CC50 in data set [1] was 0.834 ± 0.063 µM; in data set [2], 1.04 ± 0.0734 µM; in “in vitro”, greater than 1000 µM. Further, the “toxicity in animal toxicological experiments” value in data set [3] was “low toxicity and mild side effects”. For the same compound, the “crossing of the blood-brain barrier” value in data set [4] is “able to cross the blood-brain barrier”.
